Results reported in publication PMC6792352, “Limited Chemical Structural Diversity Found to Modulate Thyroid Hormone Receptor in the Tox21 Chemical Library” (Environmental Health Perspectives, 2019).
Where a name gives a salt, the structure may show the parent alone.

Assay: in vitro
Details: rat, gh3-tre-luc cells, AC50 (uM) modified / 1000

SMILES	CC50 at 24 h [µM]
OC(C#CCN1CCCC1)(c1ccccc1)c1ccccc1 [Butinoline]	35.3
CN(Cc1ccc(C(C)(C)C)cc1)Cc1cccc2ccccc12 [Butenafine]	27.3
CCCC(=O)C(C)=O [2,3-Hexanedione]	> 90
CCC[Si](OC)(OC)OC [Trimethoxypropylsilane]	> 90
OCCOCCO [Diethylene glycol]	> 90
O=C(c1ccccc1)c1ccc(O)cc1 [4-Hydroxybenzophenone]	> 90
COc1cccc(C(=O)NN(C(=O)c2cc(C)cc(C)c2)C(C)(C)C)c1C [Methoxyfenozide]	> 90
COc1ccc(C(=CC(=O)N2CCOCC2)c2ccc(Cl)cc2)cc1OC [Dimethomorph]	> 90
c1ccc2sc(SN3CCOCC3)nc2c1 [N-Oxydiethylenebenzothiazole-2-sulfenamide]	> 50
O=C1NC(=O)[C@@H]2CC=CC[C@H]12 [1,2,3,6-Tetrahydrophthalimide]	> 90
C=C(C)C(=O)OCc1ccccc1 [Benzyl methacrylate]	> 90
CC(O)COC(C)(C)C (centres unmarked) [1-tert-Butoxy-2-propanol]	> 90
CCCCCCCCCCOS(=O)(=O)O [Sodium decyl sulfate]	> 90
Cc1cc(SCc2sc(-c3ccc(C(F)(F)F)c(F)c3)nc2C)ccc1OCC(=O)O [{4-[({2-[3-Fluoro-4-(trifluoromethyl)phenyl]-4-methyl-1,3-thiazol-5-yl}methyl)sulfanyl]-2-methylphenoxy}acetic acid]	64.8
O=C(COP(=O)(O)O)[C@@H](O)[C@H](O)[C@H](O)COP(=O)(O)O [D-Fructose 1,6-bisphosphate trisodium]	> 50
C=CC(C)(O)CCC=C(C)C (centres unmarked) [Linalool]	> 90
Cc1ccccc1CCl [1-(Chloromethyl)-2-methylbenzene]	> 90

SMILES	CC50 at 24 h [µM]
Cn1nnnc1SCC1=C(C(=O)O)N2C(=O)[C@@H](NC(=O)[C@H](O)c3ccccc3)[C@H]2SC1 [Cefamandole sodium]	> 20
COC(=O)c1ccccc1C(=O)O [Monomethyl phthalate]	> 90
CC(C)(N=C=O)c1cccc(C(C)(C)N=C=O)c1 [1,3-Bis(2-isocyanato-2-propyl)benzene]	78.6
CC(C)(C)c1cccc(C(C)(C)C)c1O [2,6-Di-tert-butylphenol]	> 90
c1ccc2cc3ccccc3cc2c1 [Anthracene]	> 90
O=C(COc1ccc(Cl)cc1)N1CCN(Cc2ccc3c(c2)OCO3)CC1 [Fipexide hydrochloride]	66.7
CC(=O)OCCN(CCOC(C)=O)c1ccc(N=Nc2ccc([N+](=O)[O-])cc2C#N)cc1 [Disperse Red 82]	54
C[C@]12CCC(=O)C=C1CC[C@H]1[C@@H]3CC[C@](O)(C(=O)CO)[C@@]3(C)C[C@H](O)[C@@]12F [Fludrocortisone]	> 50
[O-][n+]1ccccc1SSc1cccc[n+]1[O-] [Dipyrithione]	0.205
COc1cccc(CCc2ccccc2OCC(CN(C)C)OC(=O)CCC(=O)O)c1 (centres unmarked) [Sarpogrelate hydrochloride]	17.2
O=C(c1ccccc1)C1(O)CCCCC1 [(1-Hydroxycyclohexyl)(phenyl)methanone]	> 90
O=C(O)C(=O)Nc1cccc(-c2nnn[nH]2)c1 [Acitazanolast]	> 50
COC(=O)c1ccc(C(=O)OC)cc1 [Dimethyl terephthalate]	> 90
Nc1ccccc1-c1ccccc1 [2-Biphenylamine]	> 90
CCCCC(F)(F)[C@@]1(O)CC[C@H]2[C@@H](CC(=O)[C@@H]2CCCCCCC(=O)O)O1 [Lubiprostone]	> 50
CN1CC(=O)N2[C@H](c3ccc4c(c3)OCO4)c3[nH]c4ccccc4c3C[C@@H]2C1=O [Tadalafil]	> 50

Same assay, conditions: rat, gh3-tre-luc cells, AC50 (uM) modified / 1000, Tox21_110001=Tox21_112864; viability, 1 nM T3 present, 24 h

SMILES	CC50 at 24 h [µM]
CCN[C@@H](C)Cc1cccc(C(F)(F)F)c1 [Dexfenfluramine hydrochloride]	> 90

Same assay, conditions: rat, gh3-tre-luc cells, AC50 (uM) modified / 1000, Tox21_110001=Tox21_200147; viability, 1 nM T3 present, 24 h

SMILES	CC50 at 24 h [µM]
CCC(Cl)CCl (centres unmarked) [1,2-Dichlorobutane]	> 90
